Numbers after ± are expanded uncertainties.
Experiment: xn = mol fraction of the nth substance listed
Conditions: Liquid, Vibrating tube method

CCCCCCCCCC [decane] + CCCCCCCC
Conditions	mass density [kg/m3]
323.15 K, 13000 kPa, x2 = 0.7736	698.56 ± 0.48
323.15 K, 13000 kPa, x2 = 0.9623	692.26 ± 0.49
323.15 K, 14000 kPa, x2 = 0.5314	706.56 ± 0.48
323.15 K, 14000 kPa, x2 = 0.7736	699.43 ± 0.49
323.15 K, 14000 kPa, x2 = 0.9623	693.16 ± 0.49
323.15 K, 15000 kPa, x2 = 0.5314	707.39 ± 0.49
323.15 K, 15000 kPa, x2 = 0.7736	700.3 ± 0.49
323.15 K, 15000 kPa, x2 = 0.9623	694.06 ± 0.5
323.15 K, 16000 kPa, x2 = 0.5314	708.22 ± 0.49
323.15 K, 16000 kPa, x2 = 0.7736	701.16 ± 0.5
323.15 K, 16000 kPa, x2 = 0.9623	694.94 ± 0.51
323.15 K, 17000 kPa, x2 = 0.5314	709.02 ± 0.5
323.15 K, 17000 kPa, x2 = 0.7736	702 ± 0.51
323.15 K, 17000 kPa, x2 = 0.9623	695.8 ± 0.51
323.15 K, 18000 kPa, x2 = 0.5314	709.85 ± 0.51
323.15 K, 18000 kPa, x2 = 0.7736	702.81 ± 0.51
323.15 K, 18000 kPa, x2 = 0.9623	696.65 ± 0.52
323.15 K, 19000 kPa, x2 = 0.5314	710.62 ± 0.51
323.15 K, 19000 kPa, x2 = 0.7736	703.6 ± 0.52
323.15 K, 19000 kPa, x2 = 0.9623	697.48 ± 0.53
323.15 K, 20000 kPa, x2 = 0.5314	711.38 ± 0.52
323.15 K, 20000 kPa, x2 = 0.7736	704.4 ± 0.53
323.15 K, 20000 kPa, x2 = 0.9623	698.3 ± 0.53
323.15 K, 21000 kPa, x2 = 0.5314	712.12 ± 0.52
323.15 K, 21000 kPa, x2 = 0.7736	705.18 ± 0.53
323.15 K, 21000 kPa, x2 = 0.9623	699.1 ± 0.54
323.15 K, 22000 kPa, x2 = 0.5314	712.85 ± 0.53
323.15 K, 22000 kPa, x2 = 0.7736	705.95 ± 0.54
323.15 K, 22000 kPa, x2 = 0.9623	699.83 ± 0.55
323.15 K, 23000 kPa, x2 = 0.5314	713.54 ± 0.54
323.15 K, 23000 kPa, x2 = 0.7736	706.68 ± 0.55
323.15 K, 23000 kPa, x2 = 0.9623	700.57 ± 0.55
323.15 K, 24000 kPa, x2 = 0.5314	714.24 ± 0.54
323.15 K, 24000 kPa, x2 = 0.7736	707.39 ± 0.55
323.15 K, 24000 kPa, x2 = 0.9623	701.31 ± 0.56
323.15 K, 25000 kPa, x2 = 0.5314	714.88 ± 0.55
323.15 K, 25000 kPa, x2 = 0.7736	708.08 ± 0.56
323.15 K, 25000 kPa, x2 = 0.9623	702 ± 0.57
323.19 K, 1000 kPa, x2 = 0.0616	706.61 ± 0.41
323.19 K, 2000 kPa, x2 = 0.0616	707.46 ± 0.42
323.19 K, 3000 kPa, x2 = 0.0616	708.43 ± 0.42
323.19 K, 4000 kPa, x2 = 0.0616	709.27 ± 0.42
323.19 K, 5000 kPa, x2 = 0.0616	710.19 ± 0.43
323.19 K, 6000 kPa, x2 = 0.0616	711.06 ± 0.43
323.19 K, 7000 kPa, x2 = 0.0616	711.94 ± 0.44
323.19 K, 8000 kPa, x2 = 0.0616	712.81 ± 0.44
323.19 K, 9000 kPa, x2 = 0.0616	713.68 ± 0.45
323.19 K, 10000 kPa, x2 = 0.0616	714.53 ± 0.45
323.19 K, 10990 kPa, x2 = 0.0616	715.36 ± 0.46
323.19 K, 12000 kPa, x2 = 0.0616	716.18 ± 0.46
323.19 K, 13000 kPa, x2 = 0.0616	716.99 ± 0.47
323.19 K, 14000 kPa, x2 = 0.0616	717.79 ± 0.47
323.19 K, 15000 kPa, x2 = 0.0616	718.57 ± 0.48
323.19 K, 16000 kPa, x2 = 0.0616	719.34 ± 0.48
323.19 K, 17000 kPa, x2 = 0.0616	720.12 ± 0.49
323.19 K, 18000 kPa, x2 = 0.0616	720.9 ± 0.49
323.19 K, 19000 kPa, x2 = 0.0616	721.64 ± 0.5
323.19 K, 20000 kPa, x2 = 0.0616	722.37 ± 0.51
323.19 K, 21000 kPa, x2 = 0.0616	723.09 ± 0.51
323.19 K, 22000 kPa, x2 = 0.0616	723.78 ± 0.52
323.19 K, 23000 kPa, x2 = 0.0616	724.44 ± 0.52
323.19 K, 24000 kPa, x2 = 0.0616	725.08 ± 0.53
323.19 K, 25000 kPa, x2 = 0.0616	725.73 ± 0.54
333.12 K, 1000 kPa, x2 = 0.0616	698.91 ± 0.41
333.12 K, 1000 kPa, x2 = 0.2801	693.73 ± 0.41
333.12 K, 2000 kPa, x2 = 0.0616	699.91 ± 0.42
333.12 K, 2000 kPa, x2 = 0.2801	694.68 ± 0.42
333.12 K, 3000 kPa, x2 = 0.0616	700.87 ± 0.42
333.12 K, 3000 kPa, x2 = 0.2801	695.65 ± 0.42
333.12 K, 4000 kPa, x2 = 0.0616	701.83 ± 0.43
333.12 K, 4000 kPa, x2 = 0.2801	696.63 ± 0.43
333.12 K, 5000 kPa, x2 = 0.0616	702.77 ± 0.43
333.12 K, 5000 kPa, x2 = 0.2801	697.61 ± 0.43
333.12 K, 6000 kPa, x2 = 0.0616	703.69 ± 0.43
333.12 K, 6000 kPa, x2 = 0.2801	698.55 ± 0.44
333.12 K, 7000 kPa, x2 = 0.0616	704.67 ± 0.44
333.12 K, 7000 kPa, x2 = 0.2801	699.5 ± 0.44
333.12 K, 8000 kPa, x2 = 0.0616	705.56 ± 0.44
333.12 K, 8000 kPa, x2 = 0.2801	700.43 ± 0.45
333.12 K, 9000 kPa, x2 = 0.0616	706.45 ± 0.45
333.12 K, 9000 kPa, x2 = 0.2801	701.36 ± 0.45
333.12 K, 10000 kPa, x2 = 0.0616	707.38 ± 0.45
333.12 K, 10000 kPa, x2 = 0.2801	702.27 ± 0.46
333.12 K, 10990 kPa, x2 = 0.0616	708.26 ± 0.46
333.12 K, 10990 kPa, x2 = 0.2801	703.19 ± 0.46
333.12 K, 12000 kPa, x2 = 0.0616	709.09 ± 0.46
333.12 K, 12000 kPa, x2 = 0.2801	704.1 ± 0.47
333.12 K, 13000 kPa, x2 = 0.0616	709.96 ± 0.47
333.12 K, 13000 kPa, x2 = 0.2801	704.98 ± 0.47
333.12 K, 14000 kPa, x2 = 0.0616	710.8 ± 0.48
333.12 K, 14000 kPa, x2 = 0.2801	705.81 ± 0.48
333.12 K, 15000 kPa, x2 = 0.0616	711.63 ± 0.48
333.12 K, 15000 kPa, x2 = 0.2801	706.72 ± 0.49
333.12 K, 16000 kPa, x2 = 0.0616	712.43 ± 0.49

From the NIST ThermoML archive (doi:10.1016/j.jct.2011.08.016)
